Patent US20120220600A1, “N-Oxide of 3-(2,6-dichloro-3,5-dimethoxy-phenyl) -1--1-methyl-urea” (priority 2009, published 2012)
Converted amounts (≈) assume the structure as drawn.

How the values were obtained:
[1] = In vitro metabolic stability in dog liver microsomes; type: in vitro ADME; conditions: for microsomal CLint at 1 μM: dog, liver microsomes
Experimental: (§1) The metabolism of drugs occurs mainly in the liver, which contains a wide variety of metabolic enzymes at concentrations higher than those observed in other organs. Metabolic stability or clearance (CL), particularly hepatic clearance (CLh), is a factor in determining drug concentration in blood. Generally, the higher the metabolic stability of a compound is, the lower the clearance of the compound.
(§2) The metabolic stability of each of Compounds 1 and 2 were determined at a concentration of 1 μM in mouse, rat, dog, monkey and human hepatic microsomal preparations. The compound tested, microsomal protein, and co-factors were combined, in duplicate, and incubated under appropriate conditions. Aliquots were removed at 0, 10 and 30 min, centrifuged and the supernatants analyzed by LC/MS/MS. Based on the percentage of the test compound remaining relative to the 0 min time point, the in vitro elimination rate constant, in vitro half-life (t1/2) and in vitro intrinsic clearance (CLint) parameters were calculate which allow for predicting the CLh values.

hERG channels = target: T1, hERG channels (Homo sapiens, UniProt Q12809); test: hERG radioligand binding assay ([3H]dofetilide competition); conditions: [3H]dofetilide binding, HEK293 cell membranes stably transfected with hERG
T1 construct: expressed in transfected cells; host or cells: HEK293 (stably transfected), membrane preparation
Experimental: The ability of Compounds 1 and 2 to inhibit the hERG (potassium channel) activity was tested using a radioligand binding assay in which test compounds competed for [^3H]dofetilide binding to a membrane preparation of HEK293 cell membranes stably transfected with hERG channels.

[2] = Permeability across Caco-2 cell monolayers; type: in vitro ADME, human; conditions: human, Caco-2, 10 μM, pH 7.4, 120 min; for Papp A→B at 120 min, 10 μM / Papp B→A at 120 min, 10 μM: 37° C.; for Papp A→B at 120 min, 10 μM: apical to basolateral; for Papp B→A at 120 min, 10 μM: basolateral to apical; for efflux ratio at 120 min, 10 μM: read-out: Papp B-A/A-B
Experimental: (§3) The permeability of Compounds 1 and 2 across the intestinal barrier and the involvement of drug efflux transporters such as P-glycoprotein (P-gp, MDR-1) were assessed in vitro using the Caco-2 cell line. […] Caco-2 cells were seeded on PET (polyethylene terephthalate) filters in a 96 well format and cultured for 18-25 days to develop monolayers. Test compound solutions (10 μM in transport buffer) were added to either the apical (A) or basolateral (B) side of the Caco-2 cell monolayer to measure the membrane permeability from the A to B compartments [Papp(A-B)] or from the B to A compartments [Papp(B-A]. The assay was carried out in HBSS (Hank's Balanced Salts) buffer, pH 7.4 (for both sides) for 120 min at 37° C. Samples were taken from apical or basolateral compartments at scheduled times (0 min and 120 min) and quantified by LC/MS/MS. The results are presented in Table 4.

Caco-2 cell monolayers = test: Permeability across Caco-2 cell monolayers; type: in vitro ADME, human; conditions: for Mechanism: Caco-2, based on B-A/A-B and clogP; for Permeability Ranking: Caco-2, based on Papp A-B
Experimental: as §3

[3] = In vitro metabolic stability in human liver microsomes; type: in vitro ADME; conditions: for CLint Rank: 1 μM
Experimental: as §1, §2

[4] = In vitro metabolic stability in monkey liver microsomes; type: in vitro ADME; conditions: for microsomal CLint at 1 μM: monkey, liver microsomes
Experimental: as §1, §2

[5] = Solubility in buffer (pH 1); type: physicochemical; conditions: pH 1, aqueous buffer
Text: (§4) Certain physicochemical properties of the compounds, as measured, are provided below: […]

[6] = In vitro metabolic stability in mouse liver microsomes; type: in vitro ADME; conditions: for microsomal CLint at 1 μM: mouse, liver microsomes
Experimental: as §1, §2

[7] = Ionization constants (pKa1/pKa2); type: physicochemical; conditions: ionization constant for acidity
Text: as §4

[8] = In vitro metabolic stability in rat liver microsomes; type: in vitro ADME; conditions: for microsomal CLint at 1 μM: rat, liver microsomes
Experimental: as §1, §2

T1 sequence (Q12809 whole entry): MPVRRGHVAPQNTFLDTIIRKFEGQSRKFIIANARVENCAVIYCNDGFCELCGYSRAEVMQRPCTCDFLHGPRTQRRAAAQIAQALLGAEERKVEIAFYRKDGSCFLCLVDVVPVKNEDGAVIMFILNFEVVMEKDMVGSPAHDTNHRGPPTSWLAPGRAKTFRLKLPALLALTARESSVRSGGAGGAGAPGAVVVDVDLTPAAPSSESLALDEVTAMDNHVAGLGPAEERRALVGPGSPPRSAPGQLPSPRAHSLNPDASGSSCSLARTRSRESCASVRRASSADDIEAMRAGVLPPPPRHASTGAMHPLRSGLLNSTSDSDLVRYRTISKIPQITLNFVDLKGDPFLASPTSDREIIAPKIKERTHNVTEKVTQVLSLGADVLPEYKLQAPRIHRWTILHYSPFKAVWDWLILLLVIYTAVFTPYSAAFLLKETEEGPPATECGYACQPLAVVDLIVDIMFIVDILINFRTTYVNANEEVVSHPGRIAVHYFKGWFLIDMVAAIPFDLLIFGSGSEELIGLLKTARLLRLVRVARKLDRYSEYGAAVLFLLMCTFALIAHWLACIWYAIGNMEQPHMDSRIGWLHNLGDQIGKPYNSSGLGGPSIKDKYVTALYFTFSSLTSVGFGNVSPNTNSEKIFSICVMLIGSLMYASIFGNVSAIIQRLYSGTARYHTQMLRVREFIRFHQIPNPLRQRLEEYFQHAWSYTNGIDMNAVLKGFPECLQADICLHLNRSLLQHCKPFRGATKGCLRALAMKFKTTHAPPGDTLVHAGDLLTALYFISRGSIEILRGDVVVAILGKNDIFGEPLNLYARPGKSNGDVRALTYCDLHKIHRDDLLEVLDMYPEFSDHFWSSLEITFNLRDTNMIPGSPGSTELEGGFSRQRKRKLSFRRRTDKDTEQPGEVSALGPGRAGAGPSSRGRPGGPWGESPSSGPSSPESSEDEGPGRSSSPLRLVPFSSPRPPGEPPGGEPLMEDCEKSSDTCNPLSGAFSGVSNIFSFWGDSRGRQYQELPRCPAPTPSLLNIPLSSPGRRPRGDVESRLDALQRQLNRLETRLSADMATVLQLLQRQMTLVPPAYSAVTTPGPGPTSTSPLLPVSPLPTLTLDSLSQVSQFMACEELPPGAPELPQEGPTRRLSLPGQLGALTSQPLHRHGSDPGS

half-life at 1 μM [1]	microsomal CLint at 1 μM ([1]; read-out: CLint)	Papp A→B at 120 min, 10 μM [2]	Papp B→A at 120 min, 10 μM [2]	efflux ratio at 120 min, 10 μM [2]	Mechanism (Caco-2 cell monolayers)	Permeability Ranking (Caco-2 cell monolayers)	half-life at 1 μM [3]	microsomal CLint at 1 μM [3]	CLint Rank [3]	half-life at 1 μM [4]	microsomal CLint at 1 μM ([4]; read-out: CLint)	solubility [5]	half-life at 1 μM [6]	microsomal CLint at 1 μM ([6]; read-out: CLint)	pKa1 [7]	pKa2 [7]	half-life at 1 μM [8]	microsomal CLint at 1 μM ([8]; read-out: CLint)	SMILES	IC50 (hERG channels)	also measured
30.1 min	46.1 µL/min/mg	0.47 ×10⁻⁶ cm/s	9.51 ×10⁻⁶ cm/s	20.2	Efflux (Efflux: B-A/A-B ≧3)	Low	37.4 min	37.1 µL/min/mg	low	35.7 min	38.9 µL/min/mg	700 µM (≈ 404 µg/mL)	55.2 min	25.1 µL/min/mg	4.5	3.2	46.8 min	29.6 µL/min/mg	CC[N+]1([O-])CCN(c2ccc(Nc3cc(N(C)C(=O)Nc4c(Cl)c(OC)cc(OC)c4Cl)ncn3)cc2)CC1 [Compound 1, N-Oxide of 3-(2,6-Dichloro-3,5-dimethoxy-phenyl)-1-{6-[4-(4-ethyl-piperazin-1-yl)-phenylamino]-pyrimidin-4-yl}-1-methyl-urea]	10.2 µM	CLint Rank ([1]; 1 μM): low; CLint Rank ([4]; 1 μM): low; CLint Rank ([6]; 1 μM): low; CLint Rank ([8]; 1 μM): low
3.5 min	395 µL/min/mg	1.69 ×10⁻⁶ cm/s	1.59 ×10⁻⁶ cm/s	0.94	Passive	Medium	35.2 min	39.4 µL/min/mg	low	3.8 min	364 µL/min/mg	2000 µM (≈ 1120 µg/mL)	10.3 min	134 µL/min/mg	8.2	3.4	15.4 min	90.3 µL/min/mg	CCN1CCN(c2ccc(Nc3cc(N(C)C(=O)Nc4c(Cl)c(OC)cc(OC)c4Cl)ncn3)cc2)CC1 [Compound 2, 3-(2,6-Dichloro-3,5-dimethoxy-phenyl)-1-{6-[4-(4-ethyl-piperazin-1-yl)-phenylamino]-pyrimidin-4-yl}-1-methyl-urea]	3 µM	microsomal CLint at 1 μM ([1]; read-out: CLint Rank): > 150 µL/min/mg; microsomal CLint at 1 μM ([4]; read-out: CLint Rank): > 150 µL/min/mg; microsomal CLint at 1 μM ([6]; read-out: CLint Rank): 50 to 150 µL/min/mg; microsomal CLint at 1 μM ([8]; read-out: CLint Rank): 50 to 150 µL/min/mg
